According to patent US20060183202A1 (priority 2003, published 2006):

Key:
[1] = target: UGT73C4 (Arabidopsis thaliana, UniProt Q9ZQ97); format: cell-based
[2] = target: DOGT1 (UGT73C5) (Arabidopsis thaliana, UniProt Q9ZQ94); format: cell-based
[3] = test system: laboratory animals; details: in vivo; cited from earlier work
[4] = test system: wheat ribosomes; format: biochemical
[5] = test system: Saccharomyces cerevisiae strain YZGA452; format: cell-based
[6] = test system: DOGT1 promoter (PDOGT1-GUS); set-up: species or system Arabidopsis thaliana; details: in vivo
[7] = test system: DOGT1 mRNA expression; set-up: species or system Arabidopsis thaliana; details: in vivo
[8] = test system: A. thaliana wild-type Col-0; details: in vivo
[9] = test system: coleoptile elongation; details: in vivo; cited from earlier work

Sequence of UGT73C4 (Q9ZQ97 whole entry, looked up): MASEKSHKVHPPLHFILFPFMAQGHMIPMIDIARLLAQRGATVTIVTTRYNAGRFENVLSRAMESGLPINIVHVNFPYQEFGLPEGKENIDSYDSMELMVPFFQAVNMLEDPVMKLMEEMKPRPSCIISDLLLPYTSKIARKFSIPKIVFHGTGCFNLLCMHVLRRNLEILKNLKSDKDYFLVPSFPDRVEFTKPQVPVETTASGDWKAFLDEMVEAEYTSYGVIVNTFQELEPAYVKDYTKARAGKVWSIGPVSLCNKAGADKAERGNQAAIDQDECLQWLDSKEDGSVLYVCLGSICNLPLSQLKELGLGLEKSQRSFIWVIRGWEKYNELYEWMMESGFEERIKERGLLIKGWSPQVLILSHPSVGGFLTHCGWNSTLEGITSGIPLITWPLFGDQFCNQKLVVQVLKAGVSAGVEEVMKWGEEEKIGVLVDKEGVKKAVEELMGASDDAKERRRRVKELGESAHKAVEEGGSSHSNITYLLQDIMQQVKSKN
Sequence of DOGT1 (UGT73C5) (Q9ZQ94 whole entry, looked up): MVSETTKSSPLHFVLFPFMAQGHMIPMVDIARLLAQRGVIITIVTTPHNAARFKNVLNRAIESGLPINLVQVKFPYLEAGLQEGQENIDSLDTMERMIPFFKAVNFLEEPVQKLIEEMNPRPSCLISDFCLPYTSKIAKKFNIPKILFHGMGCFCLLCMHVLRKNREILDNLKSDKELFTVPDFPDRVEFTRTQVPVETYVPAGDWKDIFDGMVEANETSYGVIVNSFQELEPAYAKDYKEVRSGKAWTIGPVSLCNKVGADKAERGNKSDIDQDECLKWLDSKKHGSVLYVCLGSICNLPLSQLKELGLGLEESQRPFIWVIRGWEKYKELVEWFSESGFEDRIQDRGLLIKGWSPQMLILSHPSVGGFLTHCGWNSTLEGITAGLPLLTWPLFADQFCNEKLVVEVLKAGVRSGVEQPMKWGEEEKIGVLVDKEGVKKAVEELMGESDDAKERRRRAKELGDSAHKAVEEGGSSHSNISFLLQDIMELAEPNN

## CC(=O)O[C@@H]1C[C@]2(C)[C@@]3(CO)[C@H](O)C(=O)C(C)=C[C@H]3O[C@H]1[C@@]21CO1 [3-ADON, 3-acetyl-deoxynivalenol]
[1]
  resistance to the toxin conferred by UGT73C4 expression (detoxification): failed to confer resistance
[2]
  resistance to the toxin conferred by DOGT1 expression (detoxification): inability to confer resistance
[3]
  fold less toxic than DON to laboratory animals: about 2 fold

## CC(=O)OC[C@]12[C@H](O)C(=O)C(C)=C[C@H]1O[C@@H]1[C@H](O)C[C@@]2(C)[C@]12CO2 [15-ADON, 15-acetyl-deoxynivalenol]
[1]
  resistance to the toxin conferred by UGT73C4 expression (detoxification): had the ability to detoxify
[2]
  resistance to the toxin conferred by DOGT1 expression (detoxification): protection

## CC1=C[C@H]2O[C@@H]3[C@H](O)C[C@](C)([C@@]2(CO)[C@H](O)C1=O)[C@]31CO1 [DON, deoxynivalenol]
[4]
  luminescence remaining (luciferase activity of control): 3.1%
  reporter enzyme (luciferase) activity compared to the control (100%): 36.8%
[5]
  concentration sufficient to completely inhibit growth of yeast: 180 ppm
[1]
  resistance to the toxin conferred by UGT73C4 expression (detoxification): had the ability to detoxify
[2]
  resistance to the toxin conferred by DOGT1 expression (detoxification): protects against
[6]
  induction of PDOGT1-GUS reporter expression: induce
[7]
  induction of DOGT1 transcript (RT-PCR): DON inducible expression
[8]
  main phytotoxic effect on wild-type plants: slow germination

## CC1=CC2OC3C(O[C@@H]4O[C@H](CO)[C@@H](O)[C@H](O)[C@H]4O)CC(C)(C34CO4)C2(CO)C(O)C1=O (stereo partly drawn) [DON-3-glucoside, 3-β-D-Glucopyranosyl-4-deoxynivalenol]
[4]; 20 µM
  inhibition of luciferase activity: 8%

## CC(=O)OC[C@]12C[C@H](OC(=O)CC(C)C)C(C)=C[C@H]1O[C@@H]1[C@H](O)[C@@H](O)[C@@]2(C)[C@]12CO2 [HT-2-toxin, HT-2 toxin]
[1]
  resistance to the toxin conferred by UGT73C4 expression (detoxification): failed to confer resistance

## CC/C=C\C[C@H]1C(=O)CC[C@@H]1CC(=O)O [JA, jasmonic acid]
[6]
  induction of PDOGT1-GUS reporter expression: No induction
[7]
  induction of DOGT1 transcript (RT-PCR): weak induction

## CC1=C[C@H]2O[C@@H]3[C@H](O)[C@@H](O)[C@](C)([C@@]2(CO)[C@H](O)C1=O)[C@]31CO1 [NIV, nivalenol]
[1]
  resistance to the toxin conferred by UGT73C4 expression (detoxification): failed to confer resistance
[2]
  resistance to the toxin conferred by DOGT1 expression (detoxification): lack of activity
[3]
  toxicity compared with DON in animal systems: higher toxicity

## O=C(O)c1ccccc1O [SA, salicylic acid]
[6]
  induction of PDOGT1-GUS reporter expression: No induction
[7]
  induction of DOGT1 transcript (RT-PCR): rather weakly

## C/C=C\C(=O)O[C@@H]1C[C@H]2O[C@@H]3C=C(C)C(=O)C[C@]3(C)[C@]1(C)[C@]21CO1 [TTC, trichothecin]
[1]
  resistance to the toxin conferred by UGT73C4 expression (detoxification): failed to confer resistance

## Acetyl-DON [ADON]
[9]
  overall toxicity compared with the non-acetylated form (DON): equivalent

## diacetoxyscirpenol [DAS]
[1]
  resistance to the toxin conferred by UGT73C4 expression (detoxification): failed to confer resistance

## veruccarin A [VA]
[1]
  resistance to the toxin conferred by UGT73C4 expression (detoxification): failed to confer resistance
